# Results as given in article PMC6950750, “Newly Discovered Action of HpTx3 from Venom of Heteropoda venatoria on Nav1.7 and Its Pharmacological Implications in Analgesia” (Toxins, 2019).
# Bridge positions count the residues as written; N and C are the ends. Peptide text beside a SMILES is read from it.
# Legend:
# Nav1.6 = biological target: T1, Nav1.6 (Mus musculus, UniProt Q9WTU3); test: Whole-cell patch-clamp, Nav1.6 currents in HEK293T cells; type: cell-based; conditions: HEK-293T, 1 μM HpTx3, n = 4–6
# T1 construct: expressed in transfected cells; host or cells: HEK293T
# Source text: (§1) All the used Nav channel subtype clones (Nav1.2–Nav1.9) and β subunit clones were preserved in our laboratory. cDNAs encoding rat Nav1.2, rat Nav1.3, human Nav1.5, and mouse Nav1.6 were subcloned into the vector pcDNA3.1; cDNA encoding rat Nav1.4 was subcloned into the vector pRGB4; cDNA encoding human Nav1.7 was subcloned into the vector pcDNA3.1-mod; cDNAs encoding rat Nav1.8 and human Nav1.9 were subcloned into the vectors pCMV-HA and pEGFP-N1, respectively. For localizing the binding sites of HpTx3 on the Nav1.7 and therefore probing the its mechanism of action, several chimeras were constructed with a recombination strategy by replacing the extracellular loop S3b–S4 in domain II, domain III, and domain IV of Nav1.7 with the counterpart sequences of Nav1.8, respectively, using the methods described. As a result, three chimeras were prepared, namely, Nav1.7/1.8DIIS3b–S4, Nav1.7/1.8DIII, and Nav1.7/1.8 DIV. […]
# (§2) For heterologous expression, the vector plasmids containing wild-type (WT) Nav1.2–Nav1.7 and mutant plasmids were transiently transfected into HEK293T cells (China Center for Type Culture Collection, Wuhan, China) using Lipofectamine 2000 (Invitrogen, Carlsbad, CA, USA) according to the manufacturer’s instructions. […] The cells with green fluorescence were selected for whole-cell patch-clamp analysis 24 h after transfection. […]
# Nav1.4 = biological target: T2, Nav1.4 (Rattus norvegicus, UniProt P15390); test: Whole-cell patch-clamp, Nav1.4 currents in HEK293T cells; type: cell-based
# T2 construct: expressed in transfected cells; host or cells: HEK293T
# T2 sequence (P15390 whole entry): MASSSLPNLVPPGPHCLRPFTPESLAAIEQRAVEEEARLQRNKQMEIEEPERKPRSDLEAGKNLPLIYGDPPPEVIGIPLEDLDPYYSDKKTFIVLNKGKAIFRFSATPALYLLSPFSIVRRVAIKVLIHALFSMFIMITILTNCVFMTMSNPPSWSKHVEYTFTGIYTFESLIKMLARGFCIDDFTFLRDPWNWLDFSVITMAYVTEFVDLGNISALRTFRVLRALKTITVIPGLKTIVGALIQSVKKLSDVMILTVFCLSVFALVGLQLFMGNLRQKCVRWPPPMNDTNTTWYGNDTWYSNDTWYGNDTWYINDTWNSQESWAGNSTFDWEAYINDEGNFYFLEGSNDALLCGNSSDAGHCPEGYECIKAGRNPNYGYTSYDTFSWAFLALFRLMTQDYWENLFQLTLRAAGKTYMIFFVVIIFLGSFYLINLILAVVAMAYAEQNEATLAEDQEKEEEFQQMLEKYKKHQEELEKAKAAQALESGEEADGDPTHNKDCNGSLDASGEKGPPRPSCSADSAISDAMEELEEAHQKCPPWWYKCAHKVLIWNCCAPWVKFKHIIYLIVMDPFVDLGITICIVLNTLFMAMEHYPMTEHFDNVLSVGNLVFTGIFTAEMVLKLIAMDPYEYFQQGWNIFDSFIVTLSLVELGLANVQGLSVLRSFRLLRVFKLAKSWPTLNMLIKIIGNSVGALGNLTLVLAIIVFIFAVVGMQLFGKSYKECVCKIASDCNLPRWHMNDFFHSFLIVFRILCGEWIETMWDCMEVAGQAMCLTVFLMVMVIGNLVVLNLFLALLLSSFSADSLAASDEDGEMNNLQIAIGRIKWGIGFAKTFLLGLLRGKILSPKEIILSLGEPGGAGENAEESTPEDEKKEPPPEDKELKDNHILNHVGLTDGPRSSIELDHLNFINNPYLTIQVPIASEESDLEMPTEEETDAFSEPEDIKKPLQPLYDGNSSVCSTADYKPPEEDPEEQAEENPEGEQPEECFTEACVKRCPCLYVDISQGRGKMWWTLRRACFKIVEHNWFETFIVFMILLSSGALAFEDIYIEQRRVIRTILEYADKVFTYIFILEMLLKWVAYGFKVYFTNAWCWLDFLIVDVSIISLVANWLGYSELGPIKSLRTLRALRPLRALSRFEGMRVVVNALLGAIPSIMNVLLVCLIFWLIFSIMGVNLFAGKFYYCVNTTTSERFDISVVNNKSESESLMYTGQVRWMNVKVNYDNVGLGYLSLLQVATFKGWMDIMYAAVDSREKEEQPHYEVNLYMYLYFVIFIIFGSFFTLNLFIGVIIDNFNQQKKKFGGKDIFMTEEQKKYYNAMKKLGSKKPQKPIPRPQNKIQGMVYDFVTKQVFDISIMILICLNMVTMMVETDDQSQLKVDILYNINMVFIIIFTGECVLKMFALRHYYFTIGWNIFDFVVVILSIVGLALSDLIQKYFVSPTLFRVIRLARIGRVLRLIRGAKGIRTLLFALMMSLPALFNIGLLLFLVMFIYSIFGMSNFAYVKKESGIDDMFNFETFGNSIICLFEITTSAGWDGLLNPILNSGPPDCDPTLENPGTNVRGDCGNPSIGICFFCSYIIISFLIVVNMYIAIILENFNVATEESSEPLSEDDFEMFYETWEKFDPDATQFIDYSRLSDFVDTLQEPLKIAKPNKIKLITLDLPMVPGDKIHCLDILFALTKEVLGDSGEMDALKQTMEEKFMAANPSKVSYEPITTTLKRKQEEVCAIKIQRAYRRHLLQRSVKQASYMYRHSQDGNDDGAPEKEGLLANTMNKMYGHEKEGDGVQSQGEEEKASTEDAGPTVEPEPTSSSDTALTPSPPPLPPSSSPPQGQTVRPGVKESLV
# Source text: as §1, §2
# C57BL/6 mice = test: In vivo toxicity; design: species or system mouse (C57BL/6); conditions: 20 mg/kg i.p., 8 mice
# Procedure: For detecting the potential in vivo toxicity of HpTx3, eight C57BL/6 mice were each intraperitoneally injected with HpTx3 at a dose of 20 mg/kg, which was 4-fold greater than the maximum dose (5 mg/kg) and 100-fold greater than the minimum dose (0.2 mg/kg) that were used in analgesic experiments.
# Nav1.7 D816N = biological target: T3, Nav1.7 D816N (Homo sapiens, UniProt Q15858, D827N); test: Whole-cell patch-clamp, mutant Nav1.7 D816N; type: cell-based
# T3 construct: expressed in transfected cells; host or cells: HEK293T
# T3 sequence (Q15858 other isoform, or with tags, fused parts or gaps D816N): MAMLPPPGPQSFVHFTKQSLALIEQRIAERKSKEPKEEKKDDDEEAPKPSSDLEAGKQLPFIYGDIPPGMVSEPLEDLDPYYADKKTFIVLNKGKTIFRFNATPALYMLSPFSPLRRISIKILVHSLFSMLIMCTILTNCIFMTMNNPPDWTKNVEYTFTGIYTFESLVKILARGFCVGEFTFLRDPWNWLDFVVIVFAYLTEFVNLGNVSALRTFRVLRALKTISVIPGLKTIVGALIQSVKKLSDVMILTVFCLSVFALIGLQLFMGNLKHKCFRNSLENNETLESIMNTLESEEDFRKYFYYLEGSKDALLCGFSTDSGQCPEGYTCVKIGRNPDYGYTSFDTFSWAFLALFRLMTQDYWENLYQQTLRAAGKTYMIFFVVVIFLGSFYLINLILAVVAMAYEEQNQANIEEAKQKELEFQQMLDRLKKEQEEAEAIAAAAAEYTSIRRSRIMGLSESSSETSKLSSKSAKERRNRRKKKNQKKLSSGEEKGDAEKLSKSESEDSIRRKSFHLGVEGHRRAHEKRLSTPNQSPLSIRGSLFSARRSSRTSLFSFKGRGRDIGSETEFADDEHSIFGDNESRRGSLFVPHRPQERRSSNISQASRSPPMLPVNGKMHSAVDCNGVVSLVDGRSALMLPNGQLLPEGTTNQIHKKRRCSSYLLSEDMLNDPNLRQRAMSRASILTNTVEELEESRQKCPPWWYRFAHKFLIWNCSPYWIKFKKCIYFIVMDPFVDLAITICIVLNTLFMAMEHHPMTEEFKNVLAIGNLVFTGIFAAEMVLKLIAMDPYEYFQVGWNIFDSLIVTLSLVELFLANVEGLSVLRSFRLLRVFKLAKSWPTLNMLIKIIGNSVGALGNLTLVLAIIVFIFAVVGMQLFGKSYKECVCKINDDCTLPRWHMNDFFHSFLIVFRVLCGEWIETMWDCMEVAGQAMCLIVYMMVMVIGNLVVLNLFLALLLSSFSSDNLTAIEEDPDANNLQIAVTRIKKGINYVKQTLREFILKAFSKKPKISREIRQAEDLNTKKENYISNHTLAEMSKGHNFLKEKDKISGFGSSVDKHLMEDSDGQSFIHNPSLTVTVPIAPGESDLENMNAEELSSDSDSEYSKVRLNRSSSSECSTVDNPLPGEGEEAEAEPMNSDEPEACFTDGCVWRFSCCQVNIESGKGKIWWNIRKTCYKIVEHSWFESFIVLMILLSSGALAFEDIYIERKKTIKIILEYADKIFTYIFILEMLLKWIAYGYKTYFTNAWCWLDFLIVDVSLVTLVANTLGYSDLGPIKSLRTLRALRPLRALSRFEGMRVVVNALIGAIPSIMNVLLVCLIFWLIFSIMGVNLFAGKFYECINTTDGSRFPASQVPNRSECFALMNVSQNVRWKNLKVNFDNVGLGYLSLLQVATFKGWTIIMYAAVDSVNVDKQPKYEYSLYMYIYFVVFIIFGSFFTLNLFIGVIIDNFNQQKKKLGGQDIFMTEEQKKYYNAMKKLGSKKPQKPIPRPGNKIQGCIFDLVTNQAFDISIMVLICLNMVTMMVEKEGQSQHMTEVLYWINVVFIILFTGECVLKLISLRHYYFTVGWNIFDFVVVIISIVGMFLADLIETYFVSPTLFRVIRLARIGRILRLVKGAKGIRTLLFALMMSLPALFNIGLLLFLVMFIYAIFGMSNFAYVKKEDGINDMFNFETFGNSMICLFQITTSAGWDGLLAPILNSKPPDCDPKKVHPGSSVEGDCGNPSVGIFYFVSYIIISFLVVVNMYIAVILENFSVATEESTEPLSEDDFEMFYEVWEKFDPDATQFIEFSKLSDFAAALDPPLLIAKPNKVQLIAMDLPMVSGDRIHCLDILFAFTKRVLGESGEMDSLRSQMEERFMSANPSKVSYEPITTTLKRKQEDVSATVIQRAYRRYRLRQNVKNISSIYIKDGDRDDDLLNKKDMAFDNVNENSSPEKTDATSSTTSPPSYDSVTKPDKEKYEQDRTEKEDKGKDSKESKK
# T3 sequence (Q07699 19-218, further chain): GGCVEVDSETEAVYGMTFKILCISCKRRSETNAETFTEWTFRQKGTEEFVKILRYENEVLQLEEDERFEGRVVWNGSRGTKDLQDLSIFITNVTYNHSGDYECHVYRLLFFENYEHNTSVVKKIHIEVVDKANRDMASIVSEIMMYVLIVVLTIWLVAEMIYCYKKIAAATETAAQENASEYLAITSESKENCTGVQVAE
# T3 sequence (O60939 30-215, further chain): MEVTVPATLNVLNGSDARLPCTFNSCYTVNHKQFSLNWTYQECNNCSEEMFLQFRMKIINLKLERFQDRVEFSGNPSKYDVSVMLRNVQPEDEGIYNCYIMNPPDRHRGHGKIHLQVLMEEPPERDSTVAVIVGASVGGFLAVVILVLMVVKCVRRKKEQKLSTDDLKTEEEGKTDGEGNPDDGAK
# Source text: All the used Nav channel subtype clones (Nav1.2–Nav1.9) and β subunit clones were preserved in our laboratory. cDNAs encoding rat Nav1.2, rat Nav1.3, human Nav1.5, and mouse Nav1.6 were subcloned into the vector pcDNA3.1; cDNA encoding rat Nav1.4 was subcloned into the vector pRGB4; cDNA encoding human Nav1.7 was subcloned into the vector pcDNA3.1-mod; cDNAs encoding rat Nav1.8 and human Nav1.9 were subcloned into the vectors pCMV-HA and pEGFP-N1, respectively. For localizing the binding sites of HpTx3 on the Nav1.7 and therefore probing the its mechanism of action, several chimeras were constructed with a recombination strategy by replacing the extracellular loop S3b–S4 in domain II, domain III, and domain IV of Nav1.7 with the counterpart sequences of Nav1.8, respectively, using the methods described. As a result, three chimeras were prepared, namely, Nav1.7/1.8DIIS3b–S4, Nav1.7/1.8DIII, and Nav1.7/1.8 DIV. Moreover, the amino acid residues D816 and E818 in the S3b–S4 sequence of Nav1.7 were mutated into N (Nav1.7 D816N) and Q (Nav1.7 […]), respectively.
# For heterologous expression, the vector plasmids containing wild-type (WT) Nav1.2–Nav1.7 and mutant plasmids were transiently transfected into HEK293T cells (China Center for Type Culture Collection, Wuhan, China) using Lipofectamine 2000 (Invitrogen, Carlsbad, CA, USA) according to the manufacturer’s instructions. […] The cells with green fluorescence were selected for whole-cell patch-clamp analysis 24 h after transfection.
# The whole-cell patch-clamp technique was employed to analyze the effects of HpTx3 on Nav channel subtypes in the transfected HEK293T and ND7/23 cells using an EPC-10 USB patch-clamp amplifier (HEKA, Elektronik, Lambrecht, Germany). […] Data were collected with the PatchMaster software in the HEKA EPC-10 USB patch-clamp system (HEKA Elektronik, Lambrecht, Germany) and analyzed by the software Igo Pro-6.00, Prism (GraphPad Software, La Jolla, CA, USA), Sigmaplot 10.0 (Systat Software, Inc., San Jose, CA, USA), and OriginPro. […]
# hERG channel = test: Whole-cell patch-clamp, hERG channel in HEK293T cells; type: cell-based; conditions: 1 µM HpTx3, n = 3
# Procedure: The effect of HpTx3 on the hERG channel expressed in HEK293T cells was assayed using the whole cell patch-clamp technique according to the previous method with some modifications. The bathing solution contained (in mM): HEPES 10, MgCl2 1, CaCl2 25, KCl 5, NaCl 50 (pH 7.4, adjusted with 1 M NaOH). The suction pipettes solution contained (in mM): MgCl2 2.5, KCl 140, EGTA 11, HEPES 10 (pH 7.2, adjusted with KOH). The osmotic pressure of the two solutions was adjusted to 280 ± 5 mOsm/L with sucrose. The currents of the hERG channel were induced at −40 mV after a test potential of +30 mV from a holding potential of −80 mV.
# Nav1.3 = biological target: T4, Nav1.3 (Rattus norvegicus, UniProt P08104); test: Whole-cell patch-clamp, Nav1.3 currents in HEK293T cells; type: cell-based
# T4 construct: expressed in transfected cells; host or cells: HEK293T
# Source text: as §1, §2
# Nav1.7 [1] = biological target: T5, Nav1.7 (Homo sapiens, UniProt Q15858); test: Whole-cell patch-clamp, Nav1.7 currents in HEK293T cells; type: cell-based; conditions: wild type Nav1.7, HEK293T, mean ± SD, n = 4–6
# T5 construct: expressed in transfected cells; host or cells: HEK293T
# T5 sequence (O60939 30-215): as the sequence (O60939 30-215, further chain) above
# T5 sequence (Q07699 19-218, further chain): as the sequence (Q07699 19-218, further chain) above
# T5 sequence (Q15858 other isoform, or with tags, fused parts or gaps): as the sequence (Q15858 other isoform, or with tags, fused parts or gaps D816N) above, with N816D counted along it
# Source text: as §1, §2
# Nav1.5 = biological target: T6, Nav1.5 (Homo sapiens, UniProt Q14524); test: cell-based; type: cell-based
# T6 construct: expressed in transfected cells; host or cells: HEK293T
# Source text: as §1, §2
# Nav1.2 = biological target: T7, Nav1.2 (Rattus norvegicus, UniProt P04775); test: Whole-cell patch-clamp, Nav1.2 currents in HEK293T cells; type: cell-based
# T7 construct: expressed in transfected cells; host or cells: HEK293T
# Source text: as §1, §2
# Nav1.7 [2] = conditions: cited from earlier work
# Source text: In order to further understand the actions of HpTx3 on the Nav1.7 channel, we examined the effect of the toxin on the current–voltage (I–V) relationship of the Nav channel subtype. […] When the conductance–voltage (G–V) relationship and the steady-state inactivation of Nav1.7 before and after HpTx3 treatment were inve ...
# [3] = tested on: C57BL/6 mice, formalin-induced pain model; test: Formalin-induced paw licking; type: in vivo, mouse (C57BL/6); conditions: morphine 1 mg/kg i.m., n = 8
# Procedure: (§3) Healthy female C57BL/6 mice (weighting 18–20 g) that were used for analgesic activity assay were obtained from the Experimental Animal Center of SLac-kinda (Changsha, China) and were randomly assigned to five groups, each group generally containing 8 mice. […] The mice were maintained at a temperature of 20–25 °C and under a 12 h light/12 h dark cycle, with free access to food and water. The ethical approval for the in vivo animal experiments was obtained from the Animal Care and Use Committee of the Hunan Province Animal Management Office. (The approval code: 219/2019).
# The changes in the formalin-induced nociceptive reaction in mice was used to assess the in vivo effect of HpTx3 on Nav1.7-mediated pain [74, 77, 78]. Paw licking, a pain-related behavior, was induced by subcutaneous intraplantar injection of formalin. […] The time that was spent to lick the injected paw by each mouse during phase I (0–10 min after injection) and phase II (15–35 min after injection) was separately recorded with a digital stopwatch. The nociceptive behavior attenuation by HpTx3 was evaluated by comparison of the paw licking times of the mice in each group.
# [4] = tested on: C57BL/6 mice, CFA pain model; test: Complete Freund’s adjuvant (CFA)-induced hyperalgesia; type: in vivo, mouse (C57BL/6); conditions: morphine 1 mg/kg i.m.
# Procedure: as §3
# [5] = tested on: C57BL/6 mice, hot plate pain model; test: Hot plate test; type: in vivo, mouse (C57BL/6); conditions: morphine 1 mg/kg i.p.
# Procedure: as §3
# Hot plate test was conducted according to the method described. The hot plate test apparatus (model YSL-21, Jinan, China) was placed in a quiet room, and the temperature was set at 55 ± 1 °C. After each mouse was placed at the hot plate, its nociceptive responses (hind-paw licking or jumping) and nociceptive threshold (paw withdrawal latency) were observed and recorded. […] The mice displaying abnormal baseline paw withdrawals (shorter than 5 s and longer than 30 s) were excluded from the test.
# C57BL/6 mice, SNI model = test: Spared nerve injury (SNI) model; type: in vivo, mouse (C57BL/6); conditions: morphine 1 mg/kg; 18 days after surgery; control 0.47 g; n = 8
# Procedure: as §3
# Nav1.1–1.8 = conditions: cited from earlier work
# [6] = tested on: rodent models of acute and inflammatory pain; conditions: cited from earlier work
# [7] = HEK293T, whole-cell patch-clamp, mean ± SD, n = 4–6
# [8] = also ref 20 (HwTx-IV), 36 (HnTx-III), 37 (HnTx-IV)
compound,measurement,setting,value
"CC[C@H](C)[C@@H]1NC(=O)[C@H](Cc2ccccc2)NC(=O)CNC(=O)[C@H](CCC(=O)O)NC(=O)[C@@H]2CSSC[C@H](NC(=O)[C@@H](N)CCC(=O)O)C(=O)NCC(=O)N[C@@H]([C@@H](C)O)C(=O)N[C@@H](CC(C)C)C(=O)N[C@@H](Cc3ccccc3)C(=O)N[C@@H](CO)C(=O)NCC(=O)N[C@H]3CSSC[C@H](NC1=O)C(=O)N[C@@H](CCCCN)C(=O)N[C@@H](CC(C)C)C(=O)N[C@@H](Cc1c[nH]c4ccccc14)C(=O)N[C@H](C(=O)N[C@@H](CCCNC(=N)N)C(=O)N[C@@H](Cc1ccc(O)cc1)C(=O)N[C@@H](CCC(=O)O)C(=O)N[C@@H](CCCNC(=N)N)C(=O)N[C@H](C(=O)N[C@@H](Cc1c[nH]c4ccccc14)C(N)=O)[C@@H](C)O)CSSC[C@H](NC(=O)[C@H](CC(=O)O)NC(=O)[C@H](C)NC(=O)[C@H](Cc1c[nH]cn1)NC(=O)[C@H]([C@@H](C)O)NC(=O)[C@H](CO)NC3=O)C(=O)N2 [HpTx3, Heteropodatoxin3] (H-ECGTLFSGCSTHADCCEGFICKLWCRYERTW-NH2; disulfide 2-16, 9-21, 15-25)",inhibition at 1 µM,Nav1.6,46%
same,IC50,Nav1.4; [7],18.5 ± 0.21 µM
same,selectivity for Nav1.7 over Nav1.4,Nav1.4; ratio of IC50,136 fold
same,course of symptoms,C57BL/6 mice; after 5 min and after 10 min,the symptoms became gradually weaker and disappeared completely after 10 min
same,symptoms after injection,C57BL/6 mice; within 5 min after injection,some discomfort symptoms such as body curling and writhing
same,IC50,"Nav1.7 D816N; HEK293T, mean ± SD, n = 6",3.13 ± 2.6 µM
same,inhibition at 1 µM,"Nav1.7 D816N; HEK-293T, 1 μM HpTx3, HEK293T, n = 6, read-out: inhibition of Nav1.7 D816N current",23.7%
same,IC50 difference Nav1.7 D816N versus wild type Nav1.7,Nav1.7 D816N; ratio of IC50,23 fold
same,inhibition of hERG channel current,hERG channel,about 40%
same,IC50,Nav1.3; [7],14.1 ± 2.5 µM
same,selectivity for Nav1.7 over Nav1.3,Nav1.3; ratio of IC50,104 fold
same,IC50,Nav1.7 [1],0.136 ± 0.013 µM
same,inhibition at 1 µM,"Nav1.5; HEK-293T, 1 μM HpTx3, HEK293T, whole-cell patch-clamp, n = 4–6, read-out: inhibition of Nav1.5 currents",12.8%
same,selectivity for Nav1.7 over Nav1.5,Nav1.5; ratio of IC50,122 fold
same,IC50,Nav1.2; [7],19.7 ± 0.49 µM
same,selectivity for Nav1.7 over Nav1.2,Nav1.2; ratio of IC50,145 fold
HwTx-IV: Nav1.7-targeting peptide toxin,alteration in voltage-dependence of activation and steady-state inactivation of Nav1.7,Nav1.7 [2]; [8],less than 5 mV
same,effect on I-V relationship for Nav1.7,Nav1.7 [2]; [8],do not alter the I-V relationship
CN1CC[C@]23c4c5ccc(O)c4O[C@H]2[C@@H](O)C=C[C@H]3[C@H]1C5 [morphine],"total paw licking time, phase I","[3]; 0–10 min after formalin, control 248 s",99 s
same,"total paw licking time, phase II","[3]; 15–35 min after formalin, control 572.7 s",134.3 s
same,"time of strongest analgesic effect after injection, CFA",[4],0.5 h
same,"paw withdrawal threshold, CFA","[4]; control 0.71 g, n = 8",1.05 g
same,"time of most analgesic effect after injection, hot plate",[5],0.5 h
same,"average paw withdrawal latency, hot plate","[5]; 55 ± 1 °C, control 5.93 s, n = 8",11.03 s
same,"average paw withdrawal threshold, SNI","C57BL/6 mice, SNI model",1.05 g
ProTx-II: typical gating modifier toxin,inhibition of sodium channel subtypes,Nav1.1–1.8,"can inhibit multiple sodium channel subtypes (Nav1.1–1.8), but preferentially inhibits hNav1.7"
same,efficacy in rodent models of acute and inflammatory pain,[6],not efficacious
same,shift of Nav1.7 channel activation in the depolarizing direction,Nav1.7 [2],31.1 mV
